Patent US9783537B2, “3-(4-ethylnylphenyl) pyridopyrimidinone compounds and process for preparation thereof useful as potential anticancer agents” (Council of Scientific & Industrial Research, priority 2013, dated 2017)
Where two headings read alike, the source gives them in different places.

Key:
CCRF-CEM = assay: SRB 48 h growth assay, Leukemia CCRF-CEM; format: cell-based, human; settings: Homo sapiens
[1] = test system: six CNS cancer cell line (SF-268, SF-295, SF-539, SNB-19, SNB-75 and U251); assay: in vitro anticancer activity, CNS panel; format: cell-based; settings: Homo sapiens; six CNS cancer cell lines, exposure at least 48 h; read-out: GI50, range over panel
OVCAR-5 = assay: SRB 48 h growth assay, Ovarian OVCAR-5; format: cell-based, human; settings: OVCAR-5, Ovarian; for GI50: Homo sapiens
UACC-62 = assay: SRB 48 h growth assay, Melanoma UACC-62; format: cell-based, human; settings: UACC-62, Melanoma
PC-3 = assay: SRB 48 h growth assay, Prostate PC-3; format: cell-based, human; settings: PC-3, Prostate
MDA-MB-435 = assay: SRB 48 h growth assay, Melanoma MDA-MB-435; format: cell-based, human; settings: Homo sapiens, MDA-MB-435, Melanoma
A549/ATCC = assay: SRB 48 h growth assay, Non-small Cell Lung A549/ATCC; format: cell-based, human
DU-145 = assay: SRB 48 h growth assay, Prostate DU-145; format: cell-based, human; settings: DU-145, Prostate; for GI50: Homo sapiens
[2] = test system: six leukemia cancer cell lines (CCRF-CEM, HL-60, K-562, MOLT-4, SR and RPMI-8226); assay: in vitro anticancer activity, leukemia panel; format: cell-based; settings: Homo sapiens, exposure at least 48 h, read-out: GI50, range over panel
A498 = assay: SRB 48 h growth assay, Renal A498; format: cell-based, human; settings: for GI50: Homo sapiens
HCT-116 = assay: SRB 48 h growth assay, Colon HCT-116; format: cell-based, human; settings: HCT-116, Colon
SK-MEL-2 = assay: SRB 48 h growth assay, Melanoma SK-MEL-2; format: cell-based, human; settings: SK-MEL-2, Melanoma; for GI50: Homo sapiens
SNB-75 = assay: SRB 48 h growth assay, CNS SNB-75; format: cell-based, human; settings: SNB-75, CNS; for GI50: Homo sapiens
NCI-H23 = assay: SRB 48 h growth assay, Non-small Cell Lung NCI-H23; format: cell-based, human; settings: for GI50: Homo sapiens
CAKI-1 = assay: SRB 48 h growth assay, Renal CAKI-1; format: cell-based, human; settings: CAKI-1, Renal
OVCAR-3 = assay: SRB 48 h growth assay, Ovarian OVCAR-3; format: cell-based, human; settings: OVCAR-3, Ovarian
U251 = assay: SRB 48 h growth assay, CNS U251; format: cell-based, human
[3] = test system: two prostate cancer cell line (PC-3, DU-145); assay: in vitro anticancer activity, prostate panel; format: cell-based; settings: Homo sapiens; two prostate cancer cell lines, exposure at least 48 h; read-out: GI50, range over panel
HOP-92 = assay: SRB 48 h growth assay, Non-small Cell Lung HOP-92; format: cell-based, human; settings: HOP-92, Non-small Cell Lung
HCC-2998 = assay: SRB 48 h growth assay, Colon HCC-2998; format: cell-based, human; settings: HCC-2998, Colon
ACHN = assay: SRB 48 h growth assay, Renal ACHN; format: cell-based, human; settings: for GI50: Homo sapiens
UACC-257 = assay: SRB 48 h growth assay, Melanoma UACC-257; format: cell-based, human; settings: UACC-257, Melanoma
[4] = test system: six breast cancer cell line (MCF-7, MDA-MB-231/ATCC, HS 578T, TD-47D, MDA-MB-468 and BT-549); assay: in vitro anticancer activity, breast panel; format: cell-based; settings: Homo sapiens; six breast cancer cell lines, exposure at least 48 h; read-out: GI50, range over panel
MALME-3M = assay: SRB 48 h growth assay, Melanoma MALME-3M; format: cell-based, human
NCI/ADR-RES = assay: SRB 48 h growth assay, Ovarian NCI/ADR-RES; format: cell-based, human
NCI-H226 = assay: SRB 48 h growth assay, Non-small Cell Lung NCI-H226; format: cell-based, human
[5] = read-out: Growth Inhibition GI50
[6] = read-out: Log10 GI50 (converted)
[7] = Homo sapiens, read-out: Growth Inhibition GI50
[8] = Homo sapiens, read-out: Log10 GI50 (converted)
[9] = Homo sapiens, read-out: Log10 LC50 (converted)

Question: Which CC50 (CCRF-CEM; CCKF-CEM, read-out: Log10 LC50 (converted)) does the source give for C#Cc1ccc(-n2c(/C=C/c3ccc4ccccc4n3)nc3ncccc3c2=O)cc1 [4t, (E)-3-(4-Ethynylphenyl)-2-(2-(quinolin-2-yl)vinyl)pyrido[2,3-d]pyrimidin-4(3H)-one] here?
Answer: > 100000 nM

Question: And the GI50 (CCRF-CEM; [5])?
Answer: 260 nM

Question: And the GI50 (CCRF-CEM; [6])?
Answer: 263 nM

Question: And the GI50 [1]?
Answer: 940 to 5240 nM

Question: And the GI50 (OVCAR-5; [5])?
Answer: 310 nM

Question: What about the GI50 (OVCAR-5; [6]) of the same compound?
Answer: 309 nM

Question: And the “Log10 TGI50” value (OVCAR-5)?
Answer: −5.97

Question: What about the GI50 (UACC-62; [7]) of the same compound?
Answer: 390 nM

Question: What about the GI50 (UACC-62; [8]) of the same compound?
Answer: 398 nM

Question: What about the CC50 (UACC-62; [9]) of the same compound?
Answer: 9330 nM

Question: What about the “Log10 TGI50” value (UACC-62) of the same compound?
Answer: −5.67

Question: What about the GI50 (PC-3; [7]) of the same compound?
Answer: 340 nM

Question: And the GI50 (PC-3; [8])?
Answer: 339 nM

Question: What about the CC50 (PC-3; [9]) of the same compound?
Answer: > 100000 nM

Question: And the “Log10 TGI50” value (PC-3)?
Answer: −5.76

Question: What about the GI50 (MDA-MB-435; [5]) of the same compound?
Answer: 190 nM

Question: And the GI50 (MDA-MB-435; [6])?
Answer: 195 nM

Question: And the “Log10 TGI50” value (A549/ATCC)?
Answer: −5.74

Question: What about the GI50 (A549/ATCC; [7]) of the same compound?
Answer: 350 nM

Question: What about the GI50 (A549/ATCC; [8]) of the same compound?
Answer: 355 nM

Question: What about the CC50 (A549/ATCC; [9]) of the same compound?
Answer: > 100000 nM

Question: What about the “Log10 TGI50” value (DU-145) of the same compound?
Answer: −6.15

Question: What about the GI50 (DU-145; [5]) of the same compound?
Answer: 280 nM

Question: And the GI50 (DU-145; [6])?
Answer: 282 nM

Question: What about the GI50 [2] of the same compound?
Answer: 3200 to 7350 nM

Question: What about the “Log10 TGI50” value (A498) of the same compound?
Answer: −6.14

Question: What about the GI50 (A498; [5]) of the same compound?
Answer: 220 nM

Question: What about the GI50 (A498; [6]) of the same compound?
Answer: 229 nM

Question: What about the “Log10 TGI50” value (HCT-116) of the same compound?
Answer: −5.92

Question: And the GI50 (HCT-116; [7])?
Answer: 340 nM

Question: And the GI50 (HCT-116; [8])?
Answer: 347 nM

Question: What about the CC50 (HCT-116; [9]) of the same compound?
Answer: 3890 nM

Question: What about the GI50 (SK-MEL-2; [5]) of the same compound?
Answer: 410 nM

Question: What about the GI50 (SK-MEL-2; [6]) of the same compound?
Answer: 417 nM

Question: What about the “Log10 TGI50” value (SK-MEL-2) of the same compound?
Answer: −5.80

Question: And the GI50 (SNB-75; [5])?
Answer: 330 nM

Question: And the GI50 (SNB-75; [6])?
Answer: 339 nM

Question: What about the “Log10 TGI50” value (SNB-75) of the same compound?
Answer: −5.85

Question: And the “Log10 TGI50” value (NCI-H23)?
Answer: −5.62

Question: What about the GI50 (NCI-H23; [5]) of the same compound?
Answer: 700 nM

Question: What about the GI50 (NCI-H23; [6]) of the same compound?
Answer: 708 nM

Question: What about the “Log10 TGI50” value (CAKI-1) of the same compound?
Answer: −5.81

Question: What about the GI50 (CAKI-1; [7]) of the same compound?
Answer: 320 nM

Question: What about the GI50 (CAKI-1; [8]) of the same compound?
Answer: 324 nM

Question: What about the CC50 (CAKI-1; [9]) of the same compound?
Answer: > 100000 nM

Question: And the GI50 (OVCAR-3; [7])?
Answer: 300 nM

Question: What about the GI50 (OVCAR-3; [8]) of the same compound?
Answer: 302 nM

Question: What about the CC50 (OVCAR-3; [9]) of the same compound?
Answer: 4790 nM

Question: What about the “Log10 TGI50” value (OVCAR-3) of the same compound?
Answer: −6.06

Question: And the “Log10 TGI50” value (U251)?
Answer: −5.84

Question: What about the GI50 (U251; Homo sapiens, U-251, read-out: Growth Inhibition GI50) of the same compound?
Answer: 340 nM

Question: And the GI50 (U251; Homo sapiens, U-251, read-out: Log10 GI50 (converted))?
Answer: 339 nM

Question: And the CC50 (U251; Homo sapiens, U-251, read-out: Log10 LC50 (converted))?
Answer: 8130 nM

Question: And the GI50 [3]?
Answer: 3870 to 4100 nM

Question: What about the “Log10 TGI50” value (HOP-92) of the same compound?
Answer: −5.01

Question: And the GI50 (HOP-92; [7])?
Answer: 180 nM

Question: What about the GI50 (HOP-92; [8]) of the same compound?
Answer: 186 nM

Question: What about the CC50 (HOP-92; [9]) of the same compound?
Answer: > 100000 nM

Question: What about the “Log10 TGI50” value (HCC-2998) of the same compound?
Answer: −5.92

Question: What about the GI50 (HCC-2998; [7]) of the same compound?
Answer: 340 nM

Question: And the GI50 (HCC-2998; [8])?
Answer: 347 nM

Question: And the CC50 (HCC-2998; [9])?
Answer: 6310 nM

Question: And the “Log10 TGI50” value (ACHN)?
Answer: −5.89

Question: What about the GI50 (ACHN; [5]) of the same compound?
Answer: 320 nM

Question: And the GI50 (ACHN; [6])?
Answer: 324 nM

Question: And the GI50 (UACC-257; [7])?
Answer: 430 nM

Question: And the GI50 (UACC-257; [8])?
Answer: 437 nM

Question: What about the CC50 (UACC-257; [9]) of the same compound?
Answer: 8710 nM

Question: And the “Log10 TGI50” value (UACC-257)?
Answer: −5.66

Question: What about the GI50 [4] of the same compound?
Answer: 2310 to 11400 nM

Question: And the “Log10 TGI50” value (MALME-3M)?
Answer: −5.50

Question: And the GI50 (MALME-3M; [7])?
Answer: 1210 nM

Question: What about the GI50 (MALME-3M; [8]) of the same compound?
Answer: 1200 nM

Question: What about the CC50 (MALME-3M; [9]) of the same compound?
Answer: 8320 nM

Question: What about the “Log10 TGI50” value (NCI/ADR-RES) of the same compound?
Answer: −5.75

Question: What about the GI50 (NCI/ADR-RES; [7]) of the same compound?
Answer: 380 nM

Question: And the GI50 (NCI/ADR-RES; [8])?
Answer: 380 nM

Question: And the CC50 (NCI/ADR-RES; [9])?
Answer: > 100000 nM

Question: And the “Log10 TGI50” value (NCI-H226)?
Answer: −6.15

Question: What about the GI50 (NCI-H226; [7]) of the same compound?
Answer: 250 nM

Question: What about the GI50 (NCI-H226; [8]) of the same compound?
Answer: 251 nM

Question: What about the LC50 (NCI-H226; [9]) of the same compound?
Answer: 5890 nM
